Results from PMC9501633, “Synthesis, Characterisation and Mechanism of Action of Anticancer 3-Fluoroazetidin-2-ones” (Pharmaceuticals, 2022).

Legend:
[1] = system: Hs578T cells; assay: AlamarBlue cell viability assay; type: cell-based; conditions: Homo sapiens, Hs-578T
Protocol: (§1) The potent 3-fluoro-β-lactam compound 33 synthesised was also evaluated in the triple-negative MDA-MB-231 cell line which lacks expression of the estrogen and progesterone receptors (ER/PR) and the HER2 receptor. […]. Compound 32 was also evaluated in the triple-negative breast cancer cell line Hs578T and its isogenic subclone Hs578T(i)8 (Figure 4C). Hs578Ts(i)8 cells have 2.5-fold more migratory capacity and 3-fold more invasive capacity through the extracellular matrix than the parental cell line (Hs578T) and have 30% more CD44+/CD24-/low cells and in vivo proliferation. […]. The human breast carcinoma cell lines MCF-7 and MDA-MB-231 were purchased from the European Collection of Animal Cell Cultures (ECACC, Salisbury, UK). The SW-480 cells were a kind gift from Dr. Brian Flood, School of Biochemistry and Immunology, Trinity College Dublin. The human breast tumour cell line MCF-7 was cultured in Eagles minimum essential medium with 10% foetal bovine serum, 2 mM L-glutamine and 100 μg/mL penicillin/streptomycin. The medium was supplemented with 1% non-essential amino acids. The human breast tumour cell line MDA-MB-231 cells were maintained in Dulbecco’s modified Eagle’s medium (DMEM) with the addition of penicillin/streptomycin (100 µg/mL), 10% (v/v) foetal bovine serum and 2 mM L-glutamine (complete medium). Breast cancer cell line Hs578T and its isogenic subclone Hs578T(i)8 were a kind gift from Dr. Susan McDonnell, School of Chemical and Bioprocess Engineering, University College Dublin. SW-480 cells, triple-negative breast cancer Hs578T cells and invasive variant Hs578T8i cells were cultured in DMEM with GlutaMAX-I, with the same supplement in the absence of non-essential amino acids. HEK-293T cells (normal epithelial embryonic kidney cells) were cultured in DMEM with GlutaMAX-I in the absence of non-essential amino acids. The SW-480 cells were cultured in DMEM with GlutaMAX-I, with the same supplement in the absence of non-essential amino acids. All media contained 100 U/mL penicillin and 100 μg/mL streptomycin. The cells were seeded into pre-warmed complete medium (10 × 10^4 cells/mL) and maintained at a cell density of 2–19 × 10^5 cells /mL by the addition of fresh media. The cell number was monitored using a haemocytometer. Cells were maintained at 37 °C in 5% CO2 in a humidified incubator. […]
(§2) Figure 4 Antiproliferative activity of 3-fluoro β-lactams on MCF-7, MDA-MB-231, Hs578T and Hs578T isogenic subclone Hs578T(i)8 breast cancer cells and non-tumourigenic HEK-293T cells. […] Cell viability was expressed as a percentage of vehicle control (ethanol 1% (v/v))-treated cells. […] Cell viability was expressed as a percentage of vehicle control (ethanol 1% (v/v))-treated cells and was measured by AlamarBlue assay (average of three independent experiments). […]

[2] = system: Hs578Ts(i)8 cells; assay: AlamarBlue cell viability assay; type: cell-based
Protocol: as §1, §2

[3] = Stability under degradation conditions (HPLC); type: physicochemical
Protocol: The β-lactam ring is known to undergo hydrolysis/degradation depending on the substituent type on the ring. For example, degradation of monocyclic β-lactam antibiotic aztreonam increased with elevated humidity, temperature and acidic pH buffer. Ezetimibe, a monocyclic β-lactam drug used to reduce blood cholesterol, undergoes degradation and hydrolysis more rapidly in neutral and basic pH conditions than in acidic pH [71]. The stability of representative compounds 33 and 39 was also determined at pH 4, pH 7.4 (plasma) and pH 9 (intestine) by HPLC. […] The electron-withdrawing effect of the 3-fluoro substituent may result in decreasing stability of the β-lactam ring in response to acid hydrolysis.
The stability study for compounds 33 and 39 was performed using analytical HPLC (Symmetry column (C18, […], 4.6 × 150 mm), dual wavelength absorbance detector (Waters 2487), binary HPLC pump (Waters 1525) and autosampler (Waters 717 plus)) with mobile phase acetonitrile (70%)/water (30%), flow rate 1 mL/min over 15 min and detection at λ 254 nm. Stock solutions of compounds 33 and 39 (1 mg/mL in mobile phase) were used. Dilutions of 0.5 mg/mL, 0.25 mg/mL, 0.125 mg/mL, 0.0625 mg/mL, 0.03125 mg/mL, 0.015625 mg/mL and 0.0078 mg/mL were prepared for the calibration curve. (i) Stability of 33 and 39 in phosphate buffers: The phosphate buffers were prepared in accordance with the British Pharmacopoeia 2020 at pH values 4, 7.4 and 9. Stock solution, 300 µL (1 mg/mL ACN), was added to a vial containing buffer (9.7 mL), mixed and pre-heated to 37 °C. 1 mL of the solution was introduced into an HPLC vial. Samples (10 µL) were injected and analysed at time intervals of t = 0 min, 5 min, 30 min, 60 min and hourly for 24 h. The analysis was performed in triplicate. (ii) Thermal stability: Compounds 33 and 39 (1 mL stock solution) were each placed in a vial for 4 h at 60 °C on a heating block. The sample was then cooled, diluted with acetonitrile and analysed by HPLC. (iii) Photostability study: Compounds 33 and 39 (stock solution, 1 mL) were placed in a vial, exposed to UV light for 4 h and then analysed by HPLC. (iv) Stability in acidic conditions: HCl (0.1 M, 0.2 mL) was added to stock solutions (0.8 mL) of 33 and 39 in a vial. The vial was vortexed and retained at room temperature. A sample was neutralised with NaOH (0.1 M, 0.2 mL) each hour for 4 h and then analysed by HPLC. (v) Stability of 33 and 39 in basic (alkaline) conditions: NaOH (0.1 M, 0.2 mL) was added to stock solution (0.8 mL) in a vial. The vial was vortexed and retained at room temperature. A sample was neutralised with HCl (0.1 M, 0.2 mL) every hour for 4 h then analysed by HPLC. (vi) Stability of 33 and 39 in oxidising conditions: H2O2 (3%, 0.2 mL) was added to the stock solution (0.8 mL). The vial was vortexed to obtain a homogeneous mixture and retained at room temperature, and a sample was analysed by HPLC every hour for 4 h.

Structure (SMILES) | IC50 [1] [nM] | IC50 [2] [nM] | remaining at 4 h, 0.8 mg/mL ([3]; 0.1 M HCl added to stock solution, acidic (0.1 M HCl)) [%] | remaining at 4 h, 0.8 mg/mL ([3]; 0.1 M NaOH added to stock solution, alkaline (0.1M NaOH)) [%] | remaining at 4 h, 0.8 mg/mL ([3]; 3% H2O2 added to stock solution, oxidative (3% H2O2)) [%] | remaining at 4 h, 1 mg/mL ([3]; stock solution in acetonitrile/water under UV light, UV light) [%] | remaining at 4 h, 1 mg/mL ([3]; stock solution in acetonitrile/water, heated, heat (60 °C)) [%]
COc1ccc(/C=C\c2cc(OC)c(OC)c(OC)c2)cc1O [CA-4, combretastatin A-4, reference compound] | 8 | 20 | – | – | – | – | –
COc1ccc(C2C(F)C(=O)N2c2cc(OC)c(OC)c(OC)c2)cc1F (stereo not shown) [Compound 33, 3-Fluoro-4-(3-fluoro-4-methoxyphenyl)-1-(3,4,5-trimethoxyphenyl)azetidin-2-one] | – | – | 60 | 65 | 65 | 88 | 90
